The source of these data is ChEMBL document CHEMBL3994652, “Cytotoxic clerodane diterpenoids from Croton crassifolius” (Bioorg Med Chem Lett, 2017).

For test [1], the system named is Hep 3B2. Nature of the test: Cytotoxicity against human Hep3B cells assessed as growth inhibition after 48 hrs by MTT assay. The class given is functional, cell-based. On the technique in general: Tetrazolium assays rely on reduction of a dye to a coloured formazan, in cell work by metabolically active cells.
Test [2] concerns Hep 3B2. Nature of the test: Induction of apoptosis in human Hep3B cells assessed as formation of apoptotic bodies at 20 uM after 48 hrs by acridine orange dye-based fluorescence microscopy. In kind it is functional, cell-based.
The test system of test [3] is HepG2. Nature of the test: Cytotoxicity against human HepG2 cells assessed as growth inhibition at 100 uM after 48 hrs by MTT assay. In kind it is functional, cell-based.
The test system of test [4] is Hep 3B2. Nature of the test: Induction of apoptosis in human Hep3B cells assessed as cell shrinkage at 20 uM after 48 hrs by acridine orange dye-based fluorescence microscopy. In kind it is functional.
The test system of test [5] is Hep 3B2. Nature of the test: Induction of apoptosis in human Hep3B cells assessed as chromatin condensation at 20 uM after 48 hrs by acridine orange dye-based fluorescence microscopy. In kind it is functional, cell-based.
Test [6] has as its system Hep 3B2. Nature of the test: Induction of apoptosis in human Hep3B cells assessed as cleaved PARP level after 48 hrs by Western blot method. In kind it is functional, cell-based.
Test [7] has as its system Hep 3B2. Nature of the test: Induction of apoptosis in human Hep3B cells assessed as reduction in pro-caspase 3 level at 10 to 40 uM after 48 hrs by Western blot method. In kind it is functional, cell-based. (In general: A western blot detects proteins with antibodies after separation by electrophoresis.)
In test [8] the test system is Hep 3B2. Nature of the test: Cytotoxicity against human Hep3B cells assessed as growth inhibition at 100 uM after 48 hrs by MTT assay. In kind it is functional, cell-based.
The subject of test [9] is HepG2. Nature of the test: Cytotoxicity against human HepG2 cells assessed as growth inhibition after 48 hrs by MTT assay. In kind it is functional, cell-based. The following applies: HepG2, 48 h.
In test [10] the test system is Hep 3B2. Nature of the test: Induction of apoptosis in human Hep3B cells assessed as increase in cleaved caspase 3 level at 10 to 40 uM after 48 hrs by Western blot method. In kind it is functional, cell-based.

Calls of active or inactive are those of the source. No cut-off for these calls is given here.

Broadly, the IC50 is the concentration that gives 50% inhibition. Take `O=c1[nH]cc(F)c(=O)[nH]1` [FLUOROURACIL]: the IC50 in test [1] was 49.7 µM.
With `C[C@H]1C[C@@H]2OC(=O)[C@]3(C)CCCC(=C23)[C@]12C[C@H](c1ccoc1)OC2=O`, the IC50 in test [1] was 42 µM; in [9], 17.9 µM. Moreover, the outcome in test [2], in [4], in test [5], in test [7] and in [10] was Active. The “growth inhibition (GI)” value in [3] and in test [8] was “Active” in each case. The Activity result in test [6] was “Dose-dependent effect”.
Consider `COC(=O)[C@@]1(C)CC(=O)C=C2C1=CC[C@@H](C)[C@]2(C)CC(=O)c1ccoc1`, for which, in [1], the IC50 was 51.6 µM. The “growth inhibition (GI)” value in test [3] is “Active”.
